Biological target: DNA ligase A (Mycobacterium tuberculosis, UniProt P9WNV1)
Assay: Inhibition of Mycobacterium tuberculosis LigA

Compound | IC50
CC1(C)O[C@H]2OC([C@H](CCO)NCCCN[C@H](CCO)C3O[C@@H]4OC(C)(C)O[C@@H]4[C@H]3OCc3ccccc3)[C@H](OCc3ccccc3)[C@H]2O1 (some centres not stated) | 46.2 µM
CCN(CC)CCCC(C)Nc1ccnc2c1C=CC(Cl)C2 (configuration not stated) | 46 µM

From ChEMBL document CHEMBL3046527, “NAD+-dependent DNA ligase (Rv3014c) from M. tuberculosis: Strategies for inhibitor design” (Med Chem Res, 2008)
